Reference: patent US20180250280A1 (BAYER PHARMA AKTIENGESELLSCHAFT, priority 2015, published 2018)

Assays:
human factor XIa = target: T1, human factor XIa (Homo sapiens, UniProt P03951); experiment: Measurement of FXIa inhibition (fluorogenic peptide substrate, AMC cleavage); format: biochemical; details: factor XIa from Kordia 0.45 nM; substrate Boc-Glu(OBzl)-Ala-Arg-AMC 10 μM; 30 min at 22° C.; in some cases averages from multiple determinations
T1 construct: purchased Kordia
Method: (§1) The factor XIa inhibition of the substances according to the invention is determined using a biochemical test system which utilizes the reaction of a peptidic factor XIa substrate to determine the enzymatic activity of human factor XIa. Here, factor XIa cleaves from the peptic factor XIa substrate the C-terminal aminomethylcoumarin (AMC), the fluorescence of which is measured. The determinations are conducted in microtitre plates.
Test substances are dissolved in dimethyl sulfoxide and serially diluted in dimethyl sulfoxide (3000 μM to 0.0078 μM; resulting final concentrations in the test: 50 μM to 0.00013 μM). 1 μl of the diluted substance solutions is placed into each of the wells of white microtitre plates from Greiner (384 wells). 20 μl of assay buffer (50 mM of Tris/HCl pH 7.4; 100 mM of sodium chloride; 5 mM of calcium chloride; 0.1% of bovine serum albumin) and 20 μl of factor XIa from Kordia (0.45 nM in assay buffer) are then added successively. After 15 min of incubation, the enzyme reaction is started by addition of 20 μl of the factor XIa substrate Boc-Glu(OBzl)-Ala-Arg-AMC dissolved in assay buffer (10 μM in assay buffer) from Bachem, the mixture is incubated at room temperature (22° C.) for 30 min and fluorescence is then measured (excitation: 360 nm, emission: 460 nm). The measured emissions of the test batches with test substance are compared to those of control batches without test substance (only dimethyl sulfoxide instead of test substance in dimethyl sulfoxide), and IC50 values are calculated from the concentration/activity relationships. Activity data from this test are given in Table A below (in some cases as averages from multiple individual determinations): […]

human plasma kallikrein = target: T2, human plasma kallikrein (Homo sapiens, UniProt P03952); experiment: Determination of the plasma kallikrein activity (fluorogenic peptide substrate, AMC cleavage); format: biochemical; details: plasma kallikrein from Kordia 0.6 nM; substrate H-Pro-Phe-Arg-AMC 10 μM; 30 min at 22° C.; in some cases averages from multiple determinations
T2 construct: purchased Kordia
Method: as §1, with “To determine the plasma kallikrein” for “The factor XIa”, “invention,” for “invention is determined using”, “system is used” for “system”, “plasma kallikrein” for “factor XIa”, “plasma kallikrein.” for “factor XIa.”
Test substances are dissolved in dimethyl sulfoxide and serially diluted in dimethyl sulfoxide (3000 μM to 0.0078 μM; resulting final concentrations in the test: 50 μM to 0.00013 μM). 1 μl of the diluted substance solutions is placed into each of the wells of white microtitre plates from Greiner (384 wells). 20 μl of assay buffer (50 mM Tris/HCl pH 7.4; 100 mM sodium chloride solution; 5 mM calcium chloride solution; 0.1% of bovine serum albumin) and 20 μl of plasma kallikrein from Kordia (0.6 nM in assay buffer) are then added successively. After 15 min of incubation, the enzyme reaction is started by addition of 20 μl of the substrate H-Pro-Phe-Arg-AMC dissolved in assay buffer (10 μM in assay buffer) from Bachem, the mixture is incubated at room temperature (22° C.) for 30 min and fluorescence is then measured (excitation: 360 nm, emission: 460 nm). The measured emissions of the test batches with test substance are compared to those of control batches without test substance (only dimethyl sulfoxide instead of test substance in dimethyl sulfoxide), and IC50 values are calculated from the concentration/activity relationships. Activity data from this test are given in Table B below (in some cases as averages from multiple individual determinations): […]

T1 sequence (P03951 388-625 limits assumed): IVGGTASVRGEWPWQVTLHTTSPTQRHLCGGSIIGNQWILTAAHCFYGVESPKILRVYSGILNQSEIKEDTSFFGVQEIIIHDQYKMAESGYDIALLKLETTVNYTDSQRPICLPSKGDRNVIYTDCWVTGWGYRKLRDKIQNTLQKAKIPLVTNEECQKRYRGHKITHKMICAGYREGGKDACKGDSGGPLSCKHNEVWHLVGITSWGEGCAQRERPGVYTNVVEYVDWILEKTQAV
T1 sequence (P03951 19-387 partner limits assumed): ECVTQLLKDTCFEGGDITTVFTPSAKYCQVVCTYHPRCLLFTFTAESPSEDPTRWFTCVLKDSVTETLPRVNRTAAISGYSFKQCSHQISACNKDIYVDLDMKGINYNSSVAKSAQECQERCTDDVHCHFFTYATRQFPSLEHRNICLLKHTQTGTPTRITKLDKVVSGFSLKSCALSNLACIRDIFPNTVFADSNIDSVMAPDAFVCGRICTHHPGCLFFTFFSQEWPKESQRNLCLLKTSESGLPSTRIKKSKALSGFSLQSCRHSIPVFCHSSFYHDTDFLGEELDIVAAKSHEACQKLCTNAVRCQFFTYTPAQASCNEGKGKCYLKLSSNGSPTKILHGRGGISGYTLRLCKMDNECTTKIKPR
T2 sequence (P03952 391-638 limits assumed): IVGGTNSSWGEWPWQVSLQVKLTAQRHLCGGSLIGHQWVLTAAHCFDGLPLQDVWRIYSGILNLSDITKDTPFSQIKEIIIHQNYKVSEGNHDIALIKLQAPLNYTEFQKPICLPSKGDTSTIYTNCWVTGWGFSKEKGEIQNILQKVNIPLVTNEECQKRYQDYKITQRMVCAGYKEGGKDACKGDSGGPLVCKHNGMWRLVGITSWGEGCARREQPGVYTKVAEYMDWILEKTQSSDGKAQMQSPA
T2 sequence (P03952 20-390 partner limits assumed): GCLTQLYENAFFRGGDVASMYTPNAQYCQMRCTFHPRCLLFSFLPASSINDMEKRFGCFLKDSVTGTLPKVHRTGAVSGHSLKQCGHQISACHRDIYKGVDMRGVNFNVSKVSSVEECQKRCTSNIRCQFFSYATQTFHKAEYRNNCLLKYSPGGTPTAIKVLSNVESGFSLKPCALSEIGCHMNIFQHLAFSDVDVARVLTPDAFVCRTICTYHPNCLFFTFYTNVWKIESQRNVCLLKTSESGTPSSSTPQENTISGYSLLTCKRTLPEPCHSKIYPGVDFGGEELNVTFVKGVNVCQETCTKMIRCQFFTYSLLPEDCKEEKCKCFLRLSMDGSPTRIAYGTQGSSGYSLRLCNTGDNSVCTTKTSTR

IC50 (human factor XIa) [nM] | IC50 (human plasma kallikrein) [nM] | SMILES
36 | 59 | CCCC(C(=O)Nc1ccc2nccnc2c1)n1cc(OC)c(-c2cc(Cl)ccc2OCC(F)(F)F)cc1=O (racemic) [Example 64, N-(Quinoxalin-6-yl)-2-{4-[5-chloro-2-(2,2,2-trifluoroethoxy)phenyl]-5-methoxy-2-oxopyridin-1(2H)-yl}pentanamide]
40 | 140 | CCCC(C(=O)Nc1ccc2nn(C)cc2c1)n1cc(OC)c(-c2cc(Cl)ccc2OCC(F)(F)F)cc1=O (racemic) [Example 65, 2-{4-[5-Chloro-2-(2,2,2-trifluoroethoxy)phenyl]-5-methoxy-2-oxopyridin-1(2H)-yl}-N-(2-methyl-2H-indazol-5-yl)pentanamide]
36 | 180 | CCCC(C(=O)Nc1ccc(C(=O)NC)nc1)n1cc(OC)c(-c2cc(Cl)ccc2OCC(F)(F)F)cc1=O (racemic) [Example 66, 5-{[2-{4-[5-Chloro-2-(2,2,2-trifluoroethoxy)phenyl]-5-methoxy-2-oxopyridin-1(2H)-yl}pentanoyl]amino}-N-methylpyridine-2-carboxamide]
2.8 | 140 | CCCC(C(=O)Nc1ccc(C(=O)O)cc1)n1cc(OC)c(-c2cc(Cl)ccc2OCC(F)(F)F)cc1=O (racemic) [Example 67, 4-{[2-{4-[5-Chloro-2-(2,2,2-trifluoroethoxy)phenyl]-5-methoxy-2-oxopyridin-1(2H)-yl}pentanoyl]amino}benzoic acid]
37 | 250 | CCCC(C(=O)Nc1ccc(C(N)=O)nc1)n1cc(OC)c(-c2cc(Cl)ccc2OCC(F)(F)F)cc1=O (racemic) [Example 68, 5-{[2-{4-[5-Chloro-2-(2,2,2-trifluoroethoxy)phenyl]-5-methoxy-2-oxopyridin-1(2H)-yl}pentanoyl]amino}pyridine-2-carboxamide]
0.28 | 15 | COCCC(C(=O)Nc1ccc(C(=O)O)cc1)n1cc(OC)c(-c2cc(Cl)ccc2OCC(F)(F)F)cc1=O (single isomer, unassigned) [Example 2, 4-[(2-{4-[5-Chloro-2-(2,2,2-trifluoroethoxy)phenyl]-5-methoxy-2-oxopyridin-1(2H)-yl}-4-methoxybutanoyl)amino]benzoic acid]
0.96 | 9.4 | COc1cn(C(Cc2ccn(C)n2)C(=O)Nc2ccc(C(=O)O)cc2)c(=O)cc1-c1cc(Cl)ccc1OCC(F)(F)F (single isomer, unassigned) [Example 43, 4-{[2-{4-[5-Chloro-2-(2,2,2-trifluoroethoxy)phenyl]-5-methoxy-2-oxopyridin-1(2H)-yl}-3-(1-methyl-1H-pyrazol-3-yl)propanoyl]amino}benzoic acid]
0.41 | 19 | COc1cn(C(C[C@@H]2CCCCO2)C(=O)Nc2ccc(C(=O)O)cc2)c(=O)cc1-c1cc(Cl)ccc1OCC(F)(F)F (single isomer, unassigned) [Example 50]
0.52 | 15 | COc1cn(C(CC2COCCO2)C(=O)Nc2ccc(C(=O)O)cc2)c(=O)cc1-c1cc(Cl)ccc1OCC(F)(F)F (single isomer, unassigned) [Example 62, 4-{[2-{4-[5-Chloro-2-(2,2,2-trifluoroethoxy)phenyl]-5-methoxy-2-oxopyridin-1(2H)-yl}-3-(1,4-dioxan-2-yl)propanoyl]amino}benzoic acid]
1.3 | 14 | CNC(=O)c1ccc(NC(=O)C(CC2COCCO2)n2cc(OC)c(-c3cc(Cl)ccc3OCC(F)(F)F)cc2=O)cn1 (single isomer, unassigned) [Example 63, 5-{[2-{4-[5-Chloro-2-(2,2,2-trifluoroethoxy)phenyl]-5-methoxy-2-oxopyridin-1(2H)-yl}-3-(1,4-dioxan-2-yl)propanoyl]amino}-N-methylpyridine-2-carboxamide]

SMILES | IC50 (human factor XIa) [nM] | IC50 (human plasma kallikrein) [nM]
CNC(=O)c1ccc(NC(=O)C(CCOC2(C)CCC2)n2cc(OC)c(-c3cc(Cl)ccc3OCC(F)(F)F)cc2=O)cn1 (racemic) [Example 57, 5-[[2-[4-[5-Chloro-2-(2,2,2-trifluoroethoxy)phenyl]-5-methoxy-2-oxo-1-pyridyl]-4-(1-methylcyclobutoxy)butanoyl]amino]-N-methylpyridine-2-carboxamide] | 14 | 54
COc1cn(C(CCOC2(C)CCC2)C(=O)Nc2ccc3nn(C)cc3c2)c(=O)cc1-c1cc(Cl)ccc1OCC(F)(F)F (racemic) [Example 58, 2-[4-[5-Chloro-2-(2,2,2-trifluoroethoxy)phenyl]-5-methoxy-2-oxo-1-pyridyl]-4-(1-methylcyclobutoxy)-N-(2-methylindazol-5-yl)butanamide] | 14 | 57
COc1cn(C(CCOC2(C)CCC2)C(=O)Nc2ccc(C(N)=O)c(F)c2)c(=O)cc1-c1cc(Cl)ccc1OCC(F)(F)F (racemic) [Example 59, 4-[[2-[4-[5-Chloro-2-(2,2,2-trifluoroethoxy)phenyl]-5-methoxy-2-oxo-1-pyridyl]-4-(1-methylcyclobutoxy)butanoyl]amino]-2-fluorobenzamide] | 14 | 110
COc1cn(C(CCOC2(C)CCC2)C(=O)Nc2ccc(C(N)=O)nc2)c(=O)cc1-c1cc(Cl)ccc1OCC(F)(F)F (racemic) [Example 60, 5-[[2-[4-[5-Chloro-2-(2,2,2-trifluoroethoxy)phenyl]-5-methoxy-2-oxo-1-pyridyl]-4-(1-methylcyclobutoxy)butanoyl]amino]pyridine-2-carboxamide] | 17 | 84
CCNC(=O)c1ccc(NC(=O)C(CCOC2(C)CCC2)n2cc(OC)c(-c3cc(Cl)ccc3OCC(F)(F)F)cc2=O)cn1 (racemic) [Example 61, 5-[[2-[4-[5-Chloro-2-(2,2,2-trifluoroethoxy)phenyl]-5-methoxy-2-oxo-1-pyridyl]-4-(1-methylcyclobutoxy)butanoyl]amino]-N-ethylpyridine-2-carboxamide] | 43 | 150
COc1cn(C(CCOC(C)(C)C)C(=O)Nc2ccc3nc(C(=O)O)cn3c2)c(=O)cc1-c1cc(Cl)ccc1OCC(F)(F)F (racemic) [Example 73, 6-{[4-tert-Butoxy-2-{4-[5-chloro-2-(2,2,2-trifluoroethoxy)phenyl]-5-methoxy-2-oxopyridin-1(2H)-yl}butanoyl]amino}imidazo[1,2-a]pyridine-2-carboxylic acid] | 2 | 18
COc1cc(NC(=O)C(CCOC(C)(C)C)n2cc(OC)c(-c3cc(Cl)ccc3OCC(F)(F)F)cc2=O)ccc1C(=O)O (racemic) [Example 74, 4-{[4-tert-Butoxy-2-{4-[5-chloro-2-(2,2,2-trifluoroethoxy)phenyl]-5-methoxy-2-oxopyridin-1(2H)-yl}butanoyl]amino}-2-methoxybenzoic acid] | 6.9 | 210
COc1cn(C(CCOC(C)(C)C)C(=O)Nc2ccc(C(=O)O)s2)c(=O)cc1-c1cc(Cl)ccc1OCC(F)(F)F (racemic) [Example 75, 5-{[4-tert-Butoxy-2-{4-[5-chloro-2-(2,2,2-trifluoroethoxy)phenyl]-5-methoxy-2-oxopyridin-1(2H)-yl}butanoyl]amino}thiophene-2-carboxylic acid] | 2.5 | 19
COc1cn(C(CCOC(C)(C)C)C(=O)Nc2ccc(C(=O)O)cc2)c(=O)cc1-c1cc(Cl)ccc1OCC(F)(F)F (single isomer, unassigned) [Example 8, 4-[(4-tert-Butoxy-2-{4-[5-chloro-2-(2,2,2-trifluoroethoxy)phenyl]-5-methoxy-2-oxopyridin-1(2H)-yl}butanoyl)amino]benzoic acid] | 0.94 | 19
